Laboratory results published in US11427560B2, “Composition and methods for inhibiting mammalian sterile 20-like kinase 1” (The Scripps Research Institute, priority 2015, dated 2022).

How the values were obtained:
beta cells = experiment: Beta cell apoptosis with increasing neratinib concentrations (FIG. 3); format: cell-based; conditions: increasing concentrations of neratinib
human islets = experiment: High glucose/palmitate induced apoptotic activity in human islets; conditions: high glucose and palmitate (HG/Pal), 25 μM neratinib, FIG. 8
Excerpt: Freshly isolated human islets from a single donor were exposed to high glucose and palmitate (HG/Pal) to induce apoptosis.

`CCOc1cc2ncc(C#N)c(Nc3ccc(OCc4ccccn4)c(Cl)c3)c2cc1NC(=O)/C=C/CN(C)C` [neratinib] was tested. Which Beta cell apoptosis (beta cells) did it give?
Its Beta cell apoptosis is “decrease with exposure to increasing concentrations”.

What about the “MST1 phosphorylation (pMST1)” value (human islets) of the same molecule?
Its value is “inhibited”.

And the “induction of cleaved caspase 3 (Cl Casp3)” value (human islets)?
The value was “inhibited”.
